Test results as given in article PMC9616048, “Thermal proteome profiling reveals Haemonchus orphan protein HCO_011565 as a target of the nematocidal small molecule UMW-868” (Frontiers in Pharmacology, 2022).

Experiments:
HCO_014287 = assay: Thermal proteome profiling (TPP); assay type: binding, Haemonchus contortus; settings: UMW-868 at 50 μM, xL3 protein extract, 37–67°C, versus PBS control
From the text: (§1) TPP is an advanced, multiplexed mass-spectrometry method that allows the unbiased identification or detection of drug targets ([Savitski et al., 2014]; [Perrin et al., 2020]; [Mateus et al., 2022]); it relies on the thermostability of protein-drug interactions to identify potential target protein(s) through denaturation profiles (melting curves) upon heat treatment ([Childs et al., 2019]), and has proven capacity to specifically identify targets of anti-cancer drugs or drug candidates ([Savitski et al., 2014]; [Perrin et al., 2020]; [Mateus et al., 2022]). […] The protein concentration in the supernatant was measured using a BCA Protein Assay Kit (Thermo Fisher Scientific), adjusted to 2 mg/ml and divided into four 250 μl aliquots/replicates (each containing 500 μg protein). • (ii) Incubation with compound (UMW-868), and temperature profile: Of the four 250 µl aliquots of xL3 proteins, two (i.e., test-samples) were each incubated with an equal volume of compound (UMW-868 at 50 μM), and two (control-samples) with an equal volume of PBS (pH 7.0) for 30 min at 23°C. […]

HCO_011565 = assay: Thermal proteome profiling (TPP); assay type: binding, Haemonchus contortus; settings: UMW-868 at 50 μM, xL3 protein extract, 37–67°C, versus PBS control
From the text: as §1

[1] = Cellular toxicity in HepG2 cells (crystal violet); assay type: cell-based, human; settings: human, HepG2 human hepatoma cells; HepG2, 48 h; read-out: Cytotoxicity (48 h) CC50
Experimental: (§2) The toxicities of compounds on cell and mitochondria were assessed to estimate their half-maximal cytotoxic concentrations (CC50) and half-maximal mitotoxic concentrations (MC50), respectively. HepG2 human hepatoma cells were seeded into wells of a 96-well plate at a density of 5.5 × 10^4 cells per well in 80 µl of Dulbecco’s modified eagle medium (DMEM; with GlutaMax™ cat. no. 10566016 or 4 mM L-glutamine cat. no. 11966025; Thermo Fisher Scientific), supplemented with 25 mM D-glucose (cytotoxicity) or D-galactose (mitotoxicity), 10% (v/v) inactivated foetal bovine serum (iFBS), 100 IU/ml of penicillin, 100 μg/ml of streptomycin and 0.25 μg/ml of amphotericin B (designated DMEM*). Cells were allowed to adhere for 16 h at 37°C and 5% (v/v) CO2 at > 90% relative humidity, then, incubated for 48 h with individual, serially-diluted compounds (two-fold serial dilution in DMEM*; […]) in a final volume of 100 µl. For the assessment of toxicity on mitochondria, cells were starved of serum (DMEM* without iFBS) for 4 h prior to the 48 h-incubation with compounds ([Swiss and Will, 2011]; [Kamalian et al., 2015]). Two positive control compounds, doxorubicin (cytotoxic control) and M-666 (mitotoxic control) were each added to three individual wells in each 96-well plate at a single concentration of 10 µM. DMEM* + 0.25% (v/v) DMSO was added to 12 wells in each plate as negative controls. Monepantel and moxidectin were also serially diluted — prepared in the same manner as test compounds — and used as (“non-toxic”) reference compounds. After 48 h of incubation, cell viability was determined by the crystal violet staining method ([Śliwka et al., 2016]). The absorbance (595 nm) of treated cells was normalised with reference to the negative control (100% viability). To determine the CC50 and MC50 values, compound concentrations were log10-transformed, baseline-corrected using a respective positive control (doxorubicin or M-666) and fitted using a variable slope four-parameter equation with a least squares (ordinary) fit model using GraphPad Prism software (v.9.1.2). Compounds and controls were tested in triplicate.

[2] = system: HepG2 human hepatoma cells; assay: Cellular toxicity in HepG2 cells (crystal violet); assay type: cell-based; settings: HepG2 cells, concentrations of up to 100 µM
Experimental: as §2

CCCc1ccc(-c2nc(-c3cccs3)no2)cc1 [UMW-868, 5-(4-propylphenyl)-3-(2-thienyl)-1,2,4-oxadiazole]
thermostability of protein in presence of compound (HCO_014287): highest, statistically significant thermostability
thermostability of protein in presence of compound (HCO_011565): highest, statistically significant thermostability
CC50 at 48 h [1]: > 50 µM
cytotoxicity (in words) [2]: did not display any appreciable cytotoxicity
